Data from ChEMBL document CHEMBL5380793, “Structure-Activity Relationship of Novel Pyrimidine Derivatives with Potent Inhibitory Activities against Mycobacterium tuberculosis” (J Med Chem, 2023).
≈ marks a conversion by molar mass, not a printed value.

Tests used:
[1] = system: Mycobacterium tuberculosis; assay: Antitubercular activity against marker free autoluminescent Mycobacterium tuberculosis H37Ra assessed as reduction in relative light unit measured once a day for 6 days; format: functional; details: 144 h, time 6 day
[2] = Cytotoxicity against human HepG2 cells assessed as inhibition of cell growth incubated for 48 hrs by MTT assay; format: toxicity, cell-based

Row | SMILES | MIC [1] | IC50 at 48 h [2]
1 | Cc1cc(Nc2nc(-c3ccccc3)nc3ccsc23)c(OC(C)C)cc1C1CCNCC1 | 2 µg/mL (≈ 4.36 µM) | 1.7 µM
2 | Cc1cc(Nc2nc(Cl)ncc2Cl)c(OC(C)C)cc1C1CCNCC1 | 16 µg/mL (≈ 40.5 µM) | 16 µM
3 | Cc1cc(Nc2nc(-c3cccc(O)c3)ncc2Cl)c(OC(C)C)cc1C1CCNCC1 | 2 µg/mL (≈ 4.42 µM) | 1.3 µM
4 | Cc1cc(Nc2nc(-c3ccncc3)ncc2Cl)c(OC(C)C)cc1C1CCNCC1 | 2 µg/mL (≈ 4.57 µM) | 2 µM
5 | Cc1cc(Nc2ccnc(-c3ccccc3)n2)c(OC(C)C)cc1C1CCNCC1 | 4 µg/mL (≈ 9.94 µM) | 1.9 µM
6 | Cc1cc(Nc2nc(NC3CCCC3)ncc2Cl)c(OC(C)C)cc1C1CCNCC1 | 1 µg/mL (≈ 2.25 µM) | 3.8 µM
7 | Cc1cc(Nc2nc(-c3ccccc3)nc3ccccc23)c(OC(C)C)cc1C1CCNCC1 | 2 µg/mL (≈ 4.42 µM) | 2.8 µM
8 | Cc1cc(Nc2nc(-c3cccnc3)ncc2Cl)c(OC(C)C)cc1C1CCNCC1 | 2 µg/mL (≈ 4.57 µM) | 1.7 µM
9 | Cc1cc(Nc2nc(-c3cnc4ccccc4c3)ncc2Cl)c(OC(C)C)cc1C1CCNCC1 | 1 µg/mL (≈ 2.05 µM) | 1 µM
10 | Cc1cc(Nc2nc(-c3ccccc3)ncc2F)c(OC(C)C)cc1C1CCNCC1 | 0.5 µg/mL (≈ 1.19 µM) | 2.8 µM
11 | Cc1cc(Nc2nc(-c3ccc(C(C)(C)C)cc3)ncc2Cl)c(OC(C)C)cc1C1CCNCC1 | 1 µg/mL (≈ 2.03 µM) | 2.3 µM
12 | Cc1cc(NC(=S)Nc2ccc(F)cc2)c(OC(C)C)cc1C1CCNCC1 | > 64 µg/mL | > 20 µM
13 | CC(C)Oc1cc(N2CCNCC2)ccc1Nc1nc(-c2ccccc2)ncc1Cl | 1 µg/mL (≈ 2.36 µM) | 2.9 µM
14 | Cc1cc(C)cc(-c2ncc(Cl)c(Nc3cc(C)c(C4CCNCC4)cc3OC(C)C)n2)c1 | 1 µg/mL (≈ 2.15 µM) | 2.9 µM
15 | Clc1cnc(-c2ccccc2)nc1Nc1ccc(N2CCNCC2)cc1 | 8 µg/mL (≈ 21.9 µM) | 3.3 µM
16 | Cc1cc2nc(-c3ccccc3)cc(Nc3cc(C)c(C4CCNCC4)cc3OC(C)C)n2n1 | 8 µg/mL (≈ 17.6 µM) | 4.7 µM
17 | CCCOc1cc(N2CCNCC2)ccc1Nc1nc(-c2ccccc2)ncc1Cl | 1 µg/mL (≈ 2.36 µM) | 2.1 µM
18 | COc1cccc(Nc2ncc(Cl)c(Nc3cc(C)c(C4CCNCC4)cc3OC(C)C)n2)c1 | 1 µg/mL (≈ 2.07 µM) | 1.3 µM
19 | Clc1cnc(-c2ccccc2)nc1Nc1ccc(N2CCNCC2)cc1OC1CCCC1 | 1 µg/mL (≈ 2.22 µM) | 2.7 µM
20 | Cc1cc(Nc2nc(-c3ccc(C(C)C)cc3)ncc2Cl)c(OC(C)C)cc1C1CCNCC1 | 1 µg/mL (≈ 2.09 µM) | 2.2 µM
21 | CCCc1ccc(-c2ncc(Cl)c(Nc3cc(C)c(C4CCNCC4)cc3OC(C)C)n2)cc1 | 1 µg/mL (≈ 2.09 µM) | 2.2 µM
22 | Cc1cc(NC(=O)Nc2ccc(F)cc2)c(OC(C)C)cc1C1CCNCC1 | > 64 µg/mL | > 20 µM
23 | Cc1cc(Nc2nc(-c3cccc4ccccc34)ncc2Cl)c(OC(C)C)cc1C1CCNCC1 | 0.5 µg/mL (≈ 1.03 µM) | 0.5 µM
24 | Cc1cc(Nc2nc(-c3ccccc3CO)ncc2Cl)c(OC(C)C)cc1C1CCNCC1 | 4 µg/mL (≈ 8.57 µM) | 2 µM
25 | Cc1cc(Nc2nc(Nc3ccc(Cl)cc3Cl)ncc2Cl)c(OC(C)C)cc1C1CCNCC1 | 2 µg/mL (≈ 3.84 µM) | 2.5 µM
26 | Cc1cc(Nc2nc(-c3ccc4ccccc4c3)ncc2Cl)c(OC(C)C)cc1C1CCNCC1 | 0.5 µg/mL (≈ 1.03 µM) | 0.5 µM
27 | COc1cc(N2CCNCC2)ccc1Nc1nc(-c2ccccc2)ncc1Cl | 4 µg/mL (≈ 10.1 µM) | 2.7 µM
28 | CC(C)COc1cc(N2CCNCC2)ccc1Nc1nc(-c2ccccc2)ncc1Cl | 1 µg/mL (≈ 2.28 µM) | 2.6 µM

Row | SMILES | MIC [1] | IC50 at 48 h [2]
29 | Cc1cc(Nc2nc(Nc3cccc(C(F)(F)F)c3)ncc2Cl)c(OC(C)C)cc1C1CCNCC1 | 1 µg/mL (≈ 1.92 µM) | 1.1 µM
30 | Cc1ccc(-c2ncc(Cl)c(Nc3cc(C)c(C4CCNCC4)cc3OC(C)C)n2)cc1 | 1 µg/mL (≈ 2.22 µM) | 2.5 µM
31 | Cc1cc(Nc2cc(-c3ccccc3)nc3ncnn23)c(OC(C)C)cc1C1CCNCC1 | 4 µg/mL (≈ 9.04 µM) | 4.4 µM
32 | Clc1cnc(-c2ccccc2)nc1Nc1ccc(N2CCNCC2)cc1OCC1CCCCC1 | 2 µg/mL (≈ 4.18 µM) | 2.9 µM
33 | CCC(C)Oc1cc(N2CCNCC2)ccc1Nc1nc(-c2ccccc2)ncc1Cl (stereo not given) | 1 µg/mL (≈ 2.28 µM) | 2.3 µM
34 | CCOc1cc(N2CCNCC2)ccc1Nc1nc(-c2ccccc2)ncc1Cl | 2 µg/mL (≈ 4.88 µM) | 2.5 µM
35 | Cc1cc(Nc2nc(-c3ccc4c(c3)OCCO4)ncc2Cl)c(OC(C)C)cc1C1CCNCC1 | 1 µg/mL (≈ 2.02 µM) | 1 µM
36 | Cc1cc(Nc2nc(Nc3cccc(F)c3)ncc2Cl)c(OC(C)C)cc1C1CCNCC1 | 0.5 µg/mL (≈ 1.06 µM) | 1.9 µM
37 | Cc1cc(Nc2cc(-c3ccccc3)nc3ccnn23)c(OC(C)C)cc1C1CCNCC1 | 4 µg/mL (≈ 9.06 µM) | 4.1 µM
38 | Cc1cc(Nc2nc(N)ncc2Cl)c(OC(C)C)cc1C1CCNCC1 | 32 µg/mL (≈ 85.1 µM) | > 10 µM
39 | Cc1cc(Nc2cc(C)c(C3CCNCC3)cc2OC(C)C)nc(-c2ccccc2)n1 | 4 µg/mL (≈ 9.6 µM) | 1.9 µM
40 | Cc1cc(Nc2nc(C3CC3)ncc2Cl)c(OC(C)C)cc1C1CCNCC1 | 2 µg/mL (≈ 4.99 µM) | 2 µM
41 | Cc1cc(Nc2cc(C(F)(F)F)nc(-c3ccccc3)n2)c(OC(C)C)cc1C1CCNCC1 | 2 µg/mL (≈ 4.25 µM) | 1.3 µM
42 | Cc1cc(Nc2nc(-c3ccc(Cl)cc3)ncc2Cl)c(OC(C)C)cc1C1CCNCC1 | 0.5 µg/mL (≈ 1.06 µM) | 2.3 µM
43 | COc1ccccc1Nc1ncc(Cl)c(Nc2cc(C)c(C3CCNCC3)cc2OC(C)C)n1 | 2 µg/mL (≈ 4.15 µM) | 2 µM
44 | Cc1cc(Nc2nc(-c3cccc(CO)c3)ncc2Cl)c(OC(C)C)cc1C1CCNCC1 | 4 µg/mL (≈ 8.57 µM) | 4 µM
45 | Cc1cc(Nc2nc(Nc3cccc4ccccc34)ncc2Cl)c(OC(C)C)cc1C1CCNCC1 | 2 µg/mL (≈ 3.98 µM) | 2.2 µM
46 | CNC(=O)c1ccc(-c2ncc(Cl)c(Nc3cc(C)c(C4CCNCC4)cc3OC(C)C)n2)cc1 | 2 µg/mL (≈ 4.05 µM) | 2 µM
47 | Cc1cc(Nc2nc(-c3ccc(CO)cc3)ncc2Cl)c(OC(C)C)cc1C1CCNCC1 | 2 µg/mL (≈ 4.28 µM) | 2 µM
48 | Cc1cc(Nc2nc(Nc3ccccc3F)ncc2Cl)c(OC(C)C)cc1C1CCNCC1 | 1 µg/mL (≈ 2.13 µM) | 1.9 µM
49 | Cc1cc(Nc2nc(-c3ccc4c(c3)OCO4)ncc2Cl)c(OC(C)C)cc1C1CCNCC1 | 1 µg/mL (≈ 2.08 µM) | 1 µM
50 | CCCCOc1cc(N2CCNCC2)ccc1Nc1nc(-c2ccccc2)ncc1Cl | 1 µg/mL (≈ 2.28 µM) | 2.6 µM
51 | CC(C)CCOc1cc(N2CCNCC2)ccc1Nc1nc(-c2ccccc2)ncc1Cl | 1 µg/mL (≈ 2.21 µM) | 2.1 µM
52 | Cc1cc(Nc2nc(NC3CC3)ncc2Cl)c(OC(C)C)cc1C1CCNCC1 | 4 µg/mL (≈ 9.62 µM) | 7.6 µM
53 | Cc1cc(Nc2nc(Nc3cccc(Cl)c3)ncc2Cl)c(OC(C)C)cc1C1CCNCC1 | 1 µg/mL (≈ 2.06 µM) | 2 µM
54 | Clc1cnc(-c2ccccc2)nc1Nc1ccc(N2CCNCC2)cc1OC1CCCCC1 | 2 µg/mL (≈ 4.31 µM) | 3.1 µM
55 | CCc1ncc(Cl)c(Nc2cc(C)c(C3CCNCC3)cc2OC(C)C)n1 | 8 µg/mL (≈ 20.6 µM) | 8 µM
